Reference: patent US9326968B2, “Composition for enhancing immunity containing compounds represented by chemical formulas 1-8 or sophora flavescens extract as active ingredient” (Korea Research Institute of Bioscience and Biotechnology, priority 2010, dated 2016)

Tests used:
TRIF-CFP = experiment: Distribution of TRIF-CFP in transfected THP-1 cells treated with poly (I:C), confocal microscope; format: cell-based, human; conditions: THP-1 cells transfected with pcDNA3-TRIF-CFP, 30 μM, then 50 μg/ml poly (I:C) for 1 hour
Procedure: In order to monitor the changes in distribution of TRIF-CFP in vivo by the compound of Formula 1, THP-1 cells (1×10^6 cells/well) were transfected with 0.5 μg of pcDNA3-TRIF-CFP plasmid by using Nucleofector kit V (Lonza, Switzerland) and cultured at 37° C. for 2 days. Then, the transfected cells were placed in 8-chamber slide coated with Poly-L-Lysine and treated with the compound of Formula 1 at 30 μM, and treated with 50 μg/ml of poly (I:C) for 1 hour. After removing the supernatant, the cells were washed with PBS three times, and fixed onto the slide by applying 200 μl of 4% paraformaldehyde and slowfade gold antifade reagent. Then the changes in the distribution of TRIF-CFP were monitored under carl zeins LSM 510 META confocal microscope.

rotavirus 205-1 = experiment: Proliferation of rotavirus 205-1 in TF-104 cells; format: cell-based, porcine rotavirus; conditions: 30 μM
c-Fos = experiment: TLR-3 signal pathway western blot, nuclear extract: c-Fos; format: cell-based, human; conditions: THP-1 cells, 30 μM, 60 μM, and 100 μM 1 hour prior to 50 μg/ml poly (I:C) for 3 hours; concentration-dependent
Procedure: (§1) First, THP-1 cells were prepared at a density of 1.5×10^6 cells/well and cultured in culture medium RPMI 1640 which lacks FBS for 12 hours. Then, the cells were treated with the compound of Formula 1 at a concentration of 30 μM, 60 μM, and 100 μM 1 hour prior to the poly(I:C) treatment, and then treated with 50 μg/ml of poly (I:C) for 3 hours. After 3 hours of treatment, the cells were placed in a tube and pelleted down by centrifugation to remove cell media, washed with PBS once. Subsequently, the cells were added with NE-PER Nuclear extraction reagents (Thermo scientific) and cell lysis buffer to isolate nuclear extract and total protein extract which were then subject to western blot analysis. For the nuclear extract, the level of NFkB and c-Fos was monitored, and for the total protein extract, the level of MAPKs, IKK isoforms, and IRF3 was measured. […] Furthermore, the phosphorylation of MAPKs, i.e., ERK, JNK, and p-38 which act before AP-1 activation in the pathway was reduced by the compound of Formula 1 in a concentration-dependent manner (FIG. 9e).

IFN-β = IFN-β expression in THP-1 cells, Real-time PCR; format: cell-based, human; conditions: 10 μM, 30 μM, and 60 μM for 6 hours
Procedure: After 6 hours of treatment, the cells were placed in tubes and pelleted down through centrifugation to remove cell media, which was then washed with PBS once and RNA was extracted from the washed cells by using RNeasy Mini Elute Cleanup kit. The concentration and purity of RNA extract was measured by using 2100 Bioanalyzer system (Agilent Technologies), and cDNA was synthesized from this RNA extract by using Taqman reverse transcription reagents kit (Applied Biosystems). The expression level of IFN-β was measured by running Real-time PCR using SYBR Green PCR master mix kit (Applied Biosystem).
Subsequently, in order to investigate the effect of compound of Formula 1 in expression of IFN-β which is induced by IRF3 activation, the compound of Formula 1 was added to the cell group at a concentration of 10 μM, 30 μM, and 60 μM for 6 hours and then the expression level of IFNβ was measured.

IKK = experiment: TLR-3 signal pathway western blot, total protein: IKK phosphorylation; format: cell-based, human; conditions: THP-1 cells, 30 μM, 60 μM, and 100 μM 1 hour prior to 50 μg/ml poly (I:C) for 3 hours; concentration-dependent
Procedure: as §1

JNK = experiment: TLR-3 signal pathway western blot, total protein: JNK phosphorylation; format: cell-based, human; conditions: THP-1 cells, 30 μM, 60 μM, and 100 μM 1 hour prior to 50 μg/ml poly (I:C) for 3 hours; concentration-dependent
Procedure: as §1

ERK = experiment: TLR-3 signal pathway western blot, total protein: ERK phosphorylation; format: cell-based, human; conditions: THP-1 cells, 30 μM, 60 μM, and 100 μM 1 hour prior to 50 μg/ml poly (I:C) for 3 hours; concentration-dependent
Procedure: as §1

NFkB p65 = experiment: TLR-3 signal pathway western blot, nuclear extract: NFkB p65; format: cell-based, human; conditions: THP-1 cells, 30 μM, 60 μM, and 100 μM 1 hour prior to 50 μg/ml poly (I:C) for 3 hours; concentration-dependent
Procedure: as §1

IRF3 [1] = experiment: IRF3 activation in THP-1 cells treated with poly (I:C), western blot; format: cell-based, human; conditions: 30 μM and 60 μM for 1 hour, then 50 μg/ml poly (I:C) for 3 hours, compared to poly (I:C) only
Procedure: First, in order to investigate the effect of the extract in IRF3 activation, THP-1 cells were prepared at a density of 1.5×10^6 cells/well, and treated with the compound of Formula 1 at a concentration of 30 μM and 60 μM for 1 hour and then treated with 50 μg/ml of poly (I:C) for 3 hours. After 3 hours of treatment, the cells were placed in a tube and pelleted down through centrifugation to remove cell media, which was then washed with PBS once and mixed with NE-PER Nuclear extraction reagent (Thermo scientific) and cell lysis buffer to isolate nuclear extract and total protein extract. The isolated extracts were subject to western blot analysis.

[2] = system: rotavirus KJ56-1 (bovine rotavirus, G8P[7]); experiment: Proliferation of rotavirus KJ56-1 in TF-104 cells; format: cell-based; conditions: MOI 0.01, 30 μM, 3 days
Procedure: In order to investigate the inhibitory effects of the above-disclosed compounds represented by Formulas 1 to 8 against proliferation of rotavirus, the following experiment was conducted using the fetal rhesus monkey kidney cell line TF-104. First, TF-104 cells (1×10^5 cells/well) were treated with rotavirus KJ56-1 (bovine rotavirus, […][7]) with multiplicity of infection (MOI) of 0.01 for 1 hour. Then the supernatant was removed from the cell pellet, and the pelleted cells were added to EMEM medium mixed with 1 μg/ml of trypsin and compounds of Formulas 1 to 8 and cultured at 37° C. for 3 days.

IkB = experiment: TLR-3 signal pathway western blot, total protein: IkB phosphorylation; format: cell-based, human; conditions: THP-1 cells, 30 μM, 60 μM, and 100 μM 1 hour prior to 50 μg/ml poly (I:C) for 3 hours; concentration-dependent
Procedure: as §1

p-38 = experiment: TLR-3 signal pathway western blot, total protein: p-38 phosphorylation; format: cell-based, human; conditions: THP-1 cells, 30 μM, 60 μM, and 100 μM 1 hour prior to 50 μg/ml poly (I:C) for 3 hours; concentration-dependent
Procedure: as §1

IRF3 [3] = experiment: IRF3 activity/phosphorylation in THP-1 cells, western blot; format: cell-based, human; conditions: treated with the compound only
Procedure: First, in order to investigate the effects of the extract in activation of IRF3, THP-1 cells were prepared at a density of 1.5×10^6 cells/well and treated with 30 μg/ml of S. flavescens extract, 60 μg/ml of water fraction thereof, or 30 μg/ml of chloroform fraction thereof for 2 hours. After 2 hours of treatment with the extract and fractions thereof, the cells were put into tubes and pelleted down through centrifugation to remove culture media. Then the cell pellet was washed with PBS once and treated with cell lysis buffer to isolate total protein extracts, which were then subjected to western blot analysis. In this analysis, IRF3 protein level was measured.

C=C(C)C(CCC(C)(C)O)Cc1c(O)cc(O)c2c1OC(c1ccc(O)cc1O)CC2=O (stereo not shown) [Formula 1, 5,7,2′,4′-trihydroxy-8-(5-hydroxy-2-isoprenyl-5-methyl-hexyl-)flavanone]
distribution of TRIF-CFP (TRIF-CFP): even distribution of TRIF-CFP in the cytoplasm
proliferation of rotavirus 205-1 (rotavirus 205-1): significantly inhibited
transport of c-Fos to nucleus (c-Fos): reduced
IFN-β expression (IFN-β): concentration-dependent increase
phosphorylation of IKK (IKK): reduced
phosphorylation of JNK (JNK): reduced
phosphorylation of ERK (ERK): reduced
transport of NFkB p65 to nucleus (NFkB p65): reduced
IRF3 activation (IRF3 [1]): higher level of IRF3 activation
proliferation of rotavirus KJ56-1 [2]: significantly inhibited
phosphorylation of IkB (IkB): reduced
phosphorylation of p-38 (p-38): reduced
IRF3 activity (IRF3 [3]): concentration-dependent increased
